# Laboratory results published in patent publication US20170328922A1, “METHODS AND PRODUCTS FOR LABELLING LIPIDS” (UNIVERSITY OF SOUTH AUSTRALIA, priority 2014, published 2017).
# Experiments:
# [1] = Rhenium molecular probe-lipid overlay (dot blot); format: binding; parameters: key to interaction with PE (dot blot): ✓ indicates a positive interaction; x indicates no interaction; settings: for interaction with PE (dot blot): 10 μM probe, 50 μM lipid on PVDF membrane; for affinity towards phosphatidylethanolamine (PE), in words: FIG. 7 / FIG. 8
# Experimental: (§1) The experimental protocol probe-lipid overlay was as follows: 50 μM of each lipids was loaded on to PVDF membranes (Perkin Elmer, USA), which were then incubated with molecular probes. PhenCyano and PhenPyridyl were assessed against eleven lipids including; sphingomyelin (Cat # S0756, Sigma Aldrich, USA), sphingosine (Cat # S7049; Sigma Aldrich, USA), L-phosphatidylethanolamine (Cat # P7943, Sigma Aldrich, USA), monosialodanglioside (GM1; Cat # G7641, Sigma Aldrich, USA), oleoly-L-?-lysophosphatidic acid (Cat # L7260, Sigma Aldrich, USA), palmitic acid (Cat # P5917, Sigma Aldrich, USA), sphingomyelin (Cat # S0756, Sigma Aldrich, USA), sphingosine (Cat # S7049; Sigma Aldrich, USA), L-?-phosphatidylethanolamine (Cat # P7943, Sigma Aldrich, USA), monosialodanglioside (GM1; Cat # G7641, Sigma Aldrich, USA), progesterone (Cat #102722, MP Biomedical, USA), ceramide (Cat # C2137; Sigma Aldrich, USA), triacylglycerol mix C2-C10 (Cat #17810, Sigma Aldrich, USA) and cholesteryl acetate (Cat #151114; Sigma Aldrich, USA).
# (§2) All other molecular probes were assessed against a panel of six lipids including; sphingomyelin (Cat # S0756, Sigma Aldrich, USA), sphingosine (Cat # S7049; Sigma Aldrich, USA), L-?-phosphatidylethanolamine (Cat # P7943, Sigma Aldrich, USA), monosialodanglioside (GM1; Cat # G7641, Sigma Aldrich, USA), sphingomyelin (Cat # S0756, Sigma Aldrich, USA), sphingosine (Cat # S7049; Sigma Aldrich, USA), L-?-phosphatidylethanolamine (Cat # P7943, Sigma Aldrich, USA), monosialodanglioside (GM1; Cat # G7641, Sigma Aldrich, USA) and triacylglycerol mix C2-C10 (Cat #17810, Sigma Aldrich, USA).
# (§3) Lipids were dissolved in ethanol, methanol or isopropanol for loading depending on solubility. Following lipid loading, membranes were left to dry for 20-30 minutes, then they were washed for 10 minutes in cold 10% ethanol, before they were incubated with 10 μM solution of each Rhenium molecular probe in cold 10% ethanol for one hour. Membranes were than washed four times for 10 minutes in cold 10% ethanol prior to imaging. Imaging was performed on an Image Quant Las 4000 (GE, Sweden) luminescent image analyser, with the Rhenium molecular probe being detected by excitation at 460 nm using an epi-blue light source, and detected using an 575 nm ethidium bromide filter.
# [2] = Rhenium molecular probe-lipid overlay (dot blot); format: binding; parameters: key to interaction with Sphingomyline (dot blot): ✓ indicates a positive interaction; x indicates no interaction; settings: for interaction with Sphingomyline (dot blot): 10 μM probe, 50 μM lipid on PVDF membrane; for affinity towards sphingomyelin, in words: FIG. 7 / FIG. 8
# Experimental: as §1, §2, §3
# [3] = Rhenium molecular probe-lipid overlay (dot blot); format: binding; parameters: key to interaction with Cholestrol (dot blot): ✓ indicates a positive interaction; x indicates no interaction; settings: for interaction with Cholestrol (dot blot): 10 μM probe, 50 μM lipid on PVDF membrane; for affinity towards cholesterol, in words: FIG. 7 / FIG. 8
# Experimental: as §1, §2, §3
# [4] = Rhenium molecular probe-lipid overlay (dot blot); format: binding; parameters: key to interaction with Triglycerides (dot blot): ✓ indicates a positive interaction; x indicates no interaction; settings: for interaction with Triglycerides (dot blot): 10 μM probe, 50 μM lipid on PVDF membrane; for interaction with triglycerides, in words: FIG. 7 / FIG. 8
# Experimental: as §1, §2, §3
# [5] = Rhenium molecular probe-lipid overlay (dot blot); format: binding; parameters: key to interaction with Sphingosine (dot blot): ✓ indicates a positive interaction; x indicates no interaction; settings: for interaction with Sphingosine (dot blot): 10 μM probe, 50 μM lipid on PVDF membrane; for affinity towards sphingosine, in words: FIG. 7 / FIG. 8
# Experimental: as §1, §2, §3
# [6] = Rhenium molecular probe-lipid overlay (dot blot); format: binding; parameters: key to interaction with GM1 (dot blot): ✓ indicates a positive interaction; x indicates no interaction; settings: for interaction with GM1 (dot blot): 10 μM probe, 50 μM lipid on PVDF membrane; for affinity towards monosialotetrahexosylganglioside (GM1), in words: FIG. 7 / FIG. 8
# Experimental: as §1, §2, §3
# [7] = tested on: Drosophila fat body tissue; assay: Live staining and confocal imaging of explanted fat body tissue; format: cell-based; settings: fixed fat body, nutrient deprivation/starvation conditions
# Experimental: All stocks were maintained in standard medium at 25° C. The yeast GAL4-UAS system was used for targeted gene expression (Brand and Perrimon, 1993). Fat-body specific expression of transgenes from the UAS were driven by CG-GAL4 (Asha et al., 2003). Transgenic UAS-Atg9RNAi stocks (#34901) and UAS-TorTED stocks (#7013) were obtained from the Bloomington Drosophila Stock Centre (Indiana University, IN, USA). Atg8aGFP was driven by an endogenous promoter (Kelso et al., 2004).
# Bromophenol-blue was added to the fly media and used to define different developmental time points. […] Newly formed white pupae (0 h PF), were isolated onto moist filter paper and incubated at 25° C. for either two hours (+2 h PF) or four hours (+4 h PF).
# Third instar larvae at −8 h PF were removed from standard media (normally feeding at this developmental stage) and placed on filter paper either soaked in 5% (w/v) sucrose (for amino acid deprivation), or 5% (w/v) tryptone pancreatic digest of casein (BD Bioscience USA; for carbohydrate deprivation), or soaked in water (for complete starvation). Larvae were incubated for 4-5 hours prior tissue isolation and imaging.
# Fat body tissue was dissected into PBS from Drosophila larvae or pupae. The fat body tissue was either incubated with 10 μM tricarbonyl phenanthrolin (4-cyanophenyltretrazolato) Rhenium (I) in PBS for 15 minutes at room temperature, or LysoTracker® green (according to manufacturer instructions; Invitrogen, USA) and then mounted in carbomer-940 (Snowdrift farm, Tucson, USA) based optical coupling gel to prevent dehydration prior to imaging (Rothstein et al., 2006). For Oil Red O staining, fat body tissue was fixed in 4% (v/v) paraformaldehyde for 20 minutes, and incubated in 1/100 Oil Red 0 for 30 minutes and then washed in PBS before mounting in 80% glycerol.
# A Ziess LSM710 META NLO confocal microscope (Zeiss, Germany), supplemented with a two-photon Mai-Tai® (tunable Ti:Sapphire femtosecond pulse laser, 710-920 nm, Spectra-Physics, Australia) was used for imaging. The images were acquired using a Plan-APOCHROMAT 63×/NA1.4 oil immersion objective. The Rhenium probe was excited at 830 nm using the two-photon pulse laser and detect at 600-654 nm. LysoTracker® green was imaged by excitation at 488 nm and detected at 497-558 nm. Atg8a-GFP was imaged with the Rhenium probe by excitation at 830 nm and resolved using spectral un-mixing using the Zen software package (based on spectral figure-printing of the two components). The Rhenium probe images and co-location analysis involved at least five separate images from five independent biological replicates, and one representative image from each treatment was selected for presentation (containing a minimum of 2 cells). For image quantification, two regions of interest (ROI) were selected at random with an area of 2500 μm^2 and the number of fluorescent puncta within the area counted, to give a minimum of 10 counts per treatment group. Comparison of means was performed by ANOVA with a Tukey post hoc tested in GraphPad Prism V.6.01 (USA).
Compound,interaction with PE (dot blot) [1],"affinity towards phosphatidylethanolamine (PE), in words [1]",interaction with Sphingomyline (dot blot) [2],"affinity towards sphingomyelin, in words [2]",interaction with Cholestrol (dot blot) [3],"affinity towards cholesterol, in words [3]",interaction with Triglycerides (dot blot) [4],"interaction with triglycerides, in words [4]",interaction with Sphingosine (dot blot) [5],"affinity towards sphingosine, in words [5]",interaction with GM1 (dot blot) [6],"affinity towards monosialotetrahexosylganglioside (GM1), in words [6]",colocalisation of staining with Atg8a-GFP [7]
COC(=O)c1ccc(-c2nn[n]([Re](=[C]=O)(=[C]=O)=[C]=O)n2)cc1.c1cnc2c(c1)ccc1cccnc12 [PhenEster],✓,varying affinity,✓,varying affinity,✓,varying affinity,✓,appeared to interact,✓,varying affinity,✓,varying affinity,
"Cc1ccc(C)c(N=Nc2cc(C)c(N=Nc3c(O)ccc4ccccc34)cc2C)c1 [oil red, reference compound]",,,,,,,,,,,,,did not appear to colocalise
"facial-Tricarbonyl (η^1(N2)-5- cyanophen-4′-yl tetrazolato) η^2-2,2′- bipyridine Rhenium(I) [BiphenCyano]",✓,varying affinity,✓,varying affinity,✓,varying affinity,x,,✓,varying affinity,✓,varying affinity,
"facial-Tricarbonyl (η^1(N2)-5-(methyl bcnzoate-4′-yl tetrazolato) η^2-2,2′- bipyridine Rhenium(I) [BiphenEster]",✓,varying affinity,✓,varying affinity,,varying affinity,✓,appeared to interact,,varying affinity,✓,varying affinity,
